From US6583147B1, “Pyrazolopyrimidinone derivatives for the treatment of impotence” (Dong A Pharm Co., Ltd., priority 1998, dated 2003)
pIC50: −log10 of the molar value. Values after ≈ are worked out from the molar mass of the structure shown. Read-outs that look alike come from different tables or passages of the source.

Tests used:
rats = test: Penile erection test using rats; type: in vivo, rat; conditions: oral single dose 10 mg/kg in 0.5% methyl cellulose, observed for 2 hours
[1] = biological target: T1, Phosphodiesterase-5 enzyme (PDE 5) (Homo sapiens, UniProt O76074); test: Test for phosphodiesterase-5 (PDE 5) activity; type: biochemical; conditions: PDE 5 fraction from human corpus cavernosal tissues
T1 construct: separated by HPLC (Mono Q anion exchange column) with concentration gradient of 0-500 mM NaCl to elute PDE isozymes; from tissue; host or cells: human corpus cavernosal tissue

[2] = biological target: T2, Phosphodiesterase-3 enzyme (PDE 3) (Oryctolagus cuniculus, UniProt G1ST54); test: Test for phosphodiesterase-3 (PDE 3) activity; type: biochemical; conditions: PDE 3 fraction from platelets of a rabbit
T2 construct: The supernatant was separated by DEAE-cellulose column chromatography (Whatman DE52 bead); from tissue; host or cells: rabbit platelets
T2 sequence (G1ST54 1-1128): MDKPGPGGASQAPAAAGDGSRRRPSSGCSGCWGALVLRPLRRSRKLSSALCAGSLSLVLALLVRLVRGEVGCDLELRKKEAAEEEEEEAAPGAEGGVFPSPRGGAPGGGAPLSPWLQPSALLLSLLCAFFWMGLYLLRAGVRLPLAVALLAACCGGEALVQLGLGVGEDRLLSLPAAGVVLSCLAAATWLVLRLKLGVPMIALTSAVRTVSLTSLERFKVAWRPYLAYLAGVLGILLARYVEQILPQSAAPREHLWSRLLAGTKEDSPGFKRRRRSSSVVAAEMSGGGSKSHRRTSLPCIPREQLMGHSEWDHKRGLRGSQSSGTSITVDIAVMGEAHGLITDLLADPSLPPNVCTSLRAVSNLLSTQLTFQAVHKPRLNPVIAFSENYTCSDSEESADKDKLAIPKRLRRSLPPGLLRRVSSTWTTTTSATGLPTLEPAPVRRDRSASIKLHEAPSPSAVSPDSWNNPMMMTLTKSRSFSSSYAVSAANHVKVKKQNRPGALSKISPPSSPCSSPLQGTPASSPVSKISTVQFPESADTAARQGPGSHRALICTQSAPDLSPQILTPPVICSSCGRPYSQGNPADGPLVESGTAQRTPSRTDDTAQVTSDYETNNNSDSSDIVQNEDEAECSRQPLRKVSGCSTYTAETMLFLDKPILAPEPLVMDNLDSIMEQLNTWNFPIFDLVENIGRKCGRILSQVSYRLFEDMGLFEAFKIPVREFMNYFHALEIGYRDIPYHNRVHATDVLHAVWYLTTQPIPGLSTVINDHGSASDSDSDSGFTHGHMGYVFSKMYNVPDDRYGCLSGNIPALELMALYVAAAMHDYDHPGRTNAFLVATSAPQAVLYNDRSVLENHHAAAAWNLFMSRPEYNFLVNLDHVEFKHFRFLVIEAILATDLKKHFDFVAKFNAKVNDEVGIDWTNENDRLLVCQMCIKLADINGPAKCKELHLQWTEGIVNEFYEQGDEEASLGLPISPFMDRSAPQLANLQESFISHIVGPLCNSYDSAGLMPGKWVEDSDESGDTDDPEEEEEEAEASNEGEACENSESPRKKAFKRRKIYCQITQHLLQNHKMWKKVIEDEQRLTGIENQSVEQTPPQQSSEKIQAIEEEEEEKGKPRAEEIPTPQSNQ
Experimental: Phosphodiesterase-3 enzyme (PDE 3) was separated from platelets of a rabbit. About 60 ml of blood was collected from a puncture of the abdominal artery of a rabbit in heparinized syringes. Platelet-rich plasma was harvested by centrifugation for 5 min at 450×g and further centrifuged for 15 min at 1,200×g to precipitate the platelets. The platelets were resuspended in homogenizing buffer (50 mM Tris-HCl, 1 mM MgCl2, pH 7.4), homogenized at 4° C. and ultrasonicated (30 sec/ml). The homogenized solution was centrifuged (105,000×g) for 1 hr at 4° C. to obtain the supernatant in which PDE was dissolved. The supernatant was separated by DEAE-cellulose column chromatography (Whatman DE52 bead) by using eluent (50 mM Tris-HCl, 3.75mM2-mercaptoethanol, pH 6.0) with concentration gradient of 0-1 M sodium acetate to elute PDE isozymes. The PDE activity was measured on the each column fraction by the following process to separate PDE 3 fraction and the inhibition for PDE 3 of the compounds of formula 1 was measured by using the fraction.
To 1.5 ml tube containing 100 ul of reaction mixture (15 mM Tris-HCl, 5 mM MgCl2, 0.5 mg/ml BSA, pH 7.4) were added appropriate amount of PDE 3 fraction and PDE inhibitor and the solution was mixed well. After [^3H]-cAMP or [^3H]-cGMP (500 nM, 2 uCi/ml) was added, the mixture was reacted in incubator of 30° C. for about 1 hour and the reaction was quenched by putting the tube into boiling water for about 45 seconds to 2 min. The tube was chilled in ice bath for about 5 min. To this tube was added snake venom (1 mg/ml, 100 ul) or 5′-nucleotidase (0.1 unit/tube) and the mixture was reacted in incubator of 37° C. for 10 min and chilled in ice bath. 3 times volume of methanol to the resin was added to the anion exchange resin (Bio-Rad resin, AG1-X2, 200-400 mesh) which had been already washed with 0.5 N HCl, H2O, 0.5 N NaOH, H2O, 0.5 N HCl and H2O in order and adjusted to pH 5. Then 1 ml of the pretreated resin was added to the each tube with vortexing. The mixture was left at 4° C. for 15 min with occasional vortexing and centrifuged (10,000 rpm) for about 5 min to sediment the resin. The supernatant (700 ul) was transferred to a liquid scintillation vial, and mixed with 10 ml of scintillation cocktail. After stabilizing the mixture by leaving it overnight, the radioactivity of the tube was measured by β-counter.

[3] = Acute oral toxicity test in rats; conditions: SD, rat, in vivo, 1 g/kg; rats, oral single dose; read-out: lethal dose (LD50) of oral administration
[4] = Solubility in buffer solution in pH=2&5; type: physicochemical; conditions: for solubility at 30 min: 20 °C, thermodynamic from solid
Experimental: According to that defined in the Korea Pharmacopoeia, citrate-HCl buffer (pH 2) and citrate-NaOH buffer (pH 5) solutions were added to the powdered compounds of formula 1, respectively. After subsequent severe shaking for 30 sec every 5 min in […] for 30 min, the level of compounds in the filtrate was measured by high performance liquid chromatography.

[5] = Metabolism in rat liver (9,000xg supernatant fraction with NADPH); type: in vitro ADME; conditions: 10 ug/ml, 37° C., 1 hr, rat liver 9,000xg supernatant with NADPH generating solution
Experimental: In order to evaluate the extent of metabolism of the compounds of formula 1, the metabolism in rat liver was studied as below similar to the reported method (C. L. Litterist, E. G. Mimnaugh, R. I. Reagan and T. G. Gram., Drug. Metabol. Disposit., 1975, 3, 259-265). In short, the disappearance of compounds after incubation in 9, 000×g supernatant fraction of rat liver homogenate in the presence of NADPH (reduced nicotinamide adenine dinucleotide phosphate) was evaluated.
First, Sprague-Dawley rat (Korea Experiment Animals, SPF) liver was isolated after perfusion through portal vein with 0.1 M phosphate buffer of pH 7.0 using tissue homogenizer at 4° C. After centrifugation at 9,000×g for 20 min, the supernatants were collected.
The compound stock solution was spiked (10 ug/ml) into each of the eppendorf tubes containing 1 ml of the mixed solution composing 1 volume of supernatants and 2 volumes of generating solution. The generating solution contains 1 mM NADP, 10 mM glucose-6-phosphate, 50 mM nicotinamide and 5 MM MgCl2 in 0.1 M phosphate buffer of pH 7.0. After vortex-mixing, each test tube was incubated in a water bath kept at 37° C. After 1 hr, was added acetonitrile to the reaction mixture and centrifuged. 100 ul of aliquot of the supernatant was sampled from each test tube for measuring the remnants by high performance liquid chromatography.

[6] = citrate-HCl buffer, pH 2, aqueous buffer, citrate-HCl buffer (pH 2), read-out: solubility pH 2
[7] = citrate-NaOH buffer, pH 5, aqueous buffer, citrate-NaOH buffer (pH 5), read-out: solubility pH 5

| SMILES | PEI (penile erection index) (rats) | genital grooming (number of genital groomings) (rats) | pIC50 [1] | pIC50 [2] | LD50 [3] [mg/kg] | solubility at 30 min [4, 6] [µg/mL] | solubility at 30 min [4, 7] [µg/mL] | remnants (%) [5] [%] | solubility pH 2 ([4]; citrate-HCl buffer (pH 2)) [ug/ml] | solubility pH 5 ([4]; citrate-NaOH buffer (pH 5)) [ug/ml] |
| --- | --- | --- | --- | --- | --- | --- | --- | --- | --- | --- |
| CCOc1ccc(S(=O)(=O)NCc2ccncc2)cc1-c1nc2c(CC(C)C)nn(C)c2c(=O)[nH]1 [Example 46, 5-[2-ethoxy-5-(4-pyridylmethylamidosulfonyl)phenyl]-1-methyl-3-isobutyl-1,6-dihydro-7H-pyrazolo (4,3-d)pyrimidin-7-one] | 200.0 ± 173.2 | 1.3 ± 0.6 | 8.92 | < 3.70 | > 1000 | 183 (≈ 369 µM) | 0.4 (≈ 0.805 µM) | 75.9 |  |  |
| CCOc1ccc(S(=O)(=O)NCc2cccnc2)cc1-c1nc2c(CC(C)C)nn(C)c2c(=O)[nH]1 [Example 48, 5-[2-ethoxy-5-(3-pyridylmethylamidosulfonyl)phenyl]-1-methyl-3-isobutyl-1,6-dihydro-7H-pyrazolo(4,3-d)pyrimidin-7-one] | 166.7 ± 57.7 | 1.3 ± 0.6 | 9.05 | 4.47 | > 1000 | 114 (≈ 230 µM) | 0.3 (≈ 0.604 µM) | 66.0 |  |  |
| CCCOc1ccc(S(=O)(=O)NCc2cccnc2)cc1-c1nc2c(CCC)nn(C)c2c(=O)[nH]1 [Example 49, 5-[2-propyloxy-5-(3-pyridylmethylamidosulfonyl)phenyl]-1-methyl-3-propyl-1,6-dihydro-7H-pyrazolo(4,3-d)pyrimidin-7-one] | 200.0 ± 173.2 | 1.3 ± 0.6 | 9.52 | 4.60 | > 1000 | 43 (≈ 86.6 µM) |  | 71.3 |  |  |
| CCOc1ccc(S(=O)(=O)NCc2ccccn2)cc1-c1nc2c(CC(C)C)nn(C)c2c(=O)[nH]1 [Example 51, 5-[2-ethoxy-5-(2-pyridylmethylamidosulfonyl)phenyl]-1-methyl-3-isobutyl-1,6-dihydro-7H-pyrazolo(4,3-d)pyrimidin-7-one] | 233.3 ± 152.8 | 3.0 ± 2.0 | 8.82 | < 3.70 | > 1000 | 215 (≈ 433 µM) | 1 (≈ 2.01 µM) | 70.4 |  |  |
| CCCOc1ccc(S(=O)(=O)NCC2CCCN2C)cc1-c1nc2c(CCC)nn(C)c2c(=O)[nH]1 (stereo not drawn) [Example 56, 5-[2-propyloxy-5-(1-methyl-2-pyrrolidinylmethylamidosulfonyl)phenyl]-1-methyl-3-propyl-1,6-dihydro-7H-pyrazolo(4,3-d)pyrimidin-7-one] | 200.0 ± 81.7 | 2.0 ± 0.0 | 7.85 | < 3.70 | > 1000 | 3720 to 5360 (≈ 7400 to 10700 µM) | 4920 to 14800 (≈ 9790 to 29400 µM) | 83.9 | 3918 | 6361 |
| CCOc1ccc(S(=O)(=O)NCC2CCCN2C)cc1-c1nc2c(CC(C)C)nn(C)c2c(=O)[nH]1 (stereo not drawn) [Example 58, 5-[2-ethoxy-5-(1-methyl-2-pyrrolidinylmethylamidosulfonyl)phenyl]-1-methyl-3-isobutyl-1,6-dihydro-7H-pyrazolo(4,3-d)pyrimidin-7-one] | 275.0 ± 170.8 | 3.0 ± 1.8 | 7.80 | < 3.70 | > 1000 | 3720 to 5360 (≈ 7400 to 10700 µM) | 4920 to 14800 (≈ 9790 to 29400 µM) | 93.5 | 3722 | 9003 |
